Structures are written as SMILES.

The target of one experiment is T1, phospho p-38 alpha kinase (Homo sapiens, UniProt Q16539).
T1 construct: purchased Panvera
T1 sequence (Q16539 whole entry): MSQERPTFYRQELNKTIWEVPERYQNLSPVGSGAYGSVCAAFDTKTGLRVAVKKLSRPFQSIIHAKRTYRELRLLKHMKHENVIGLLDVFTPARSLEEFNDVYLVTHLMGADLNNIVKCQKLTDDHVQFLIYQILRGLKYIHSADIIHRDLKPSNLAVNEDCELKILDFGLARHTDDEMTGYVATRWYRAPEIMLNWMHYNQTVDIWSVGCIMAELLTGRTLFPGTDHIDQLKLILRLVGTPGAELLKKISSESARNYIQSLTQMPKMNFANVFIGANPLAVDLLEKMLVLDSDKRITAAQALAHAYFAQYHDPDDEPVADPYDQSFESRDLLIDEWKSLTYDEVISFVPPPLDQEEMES
In words: P-38 alpha kinase assay (spectrophotometric, pyruvate kinase/lactate dehydrogenase coupled). It is filed as biochemical. As to conditions: Table 3; rates at […] to 2 h; read-out: IC50. The method, then:
In this assay, the oxidation of NADH was continuously measured spectrophometrically. […] The reaction was initiated by adding ATP. The absorption at 340 nm was monitored continuously for up to 4 hours at 30° C. on Polarstar Optima plate reader (BMG). The kinase activity (reaction rate) was calculated from the slope at the time frame from 1.5 h to 2 h.
For inhibition determinations, test compounds were incubated with the reaction mixture for ˜5 min before adding ATP to start the reaction. […] IC50 values were calculated from a series of % inhibition values determined at a range of concentrations of each inhibitor using Prism to process the data and fit inhibition curves. Generally, the rates obtained at the time frame of 1.5 h to 2 h were used for these calculations.
In the case of `CC(C)(C)c1cc(NC(=O)Nc2cccc(F)c2F)n(-c2ccc(CC(=O)O)cc2)n1` [Example 204, 2-(4-(3-t-butyl-5-(3-(2,3-difluorophenyl)ureido)-1H-pyrazol-1-yl)-phenyl)acetic acid], the IC50 worked out at 0.008 µM.

Turning to `COc1cccc(-n2nc(C(C)(C)C)cc2NC(=O)Nc2ccc(F)cc2)c1` [Example 206, 1-(3-t-butyl-1-(3-methoxyphenyl)-1H-pyrazol-5-yl)-3-(4-fluorophenyl)urea], the IC50 is 0.013 µM.

In the case of `CC(C)(C)c1cc(NC(=O)Nc2cccc(Cl)c2Cl)n(-c2cccc(C(N)=O)c2)n1` [Example 289, 1-[3-t-butyl-1-(3-carbamoylphenyl)-1H-pyrazol-5-yl]-3-(2,3-dichlorophenyl)urea], the IC50 was determined as 1.3 µM.

Staying with this experiment, now noted: Table 5; @ 1 uM.
Regarding `CC(Cc1cccc(-n2nc(C(C)(C)C)cc2NC(=O)Nc2cccc(Cl)c2Cl)c1)C(=O)O` (centres unmarked) [Example 323, 3-(3-{3-t-butyl-5-[3-(2,3-dichlorophenyl)ureido]-1H-pyrazol-1-yl}-1-phenyl)-2-methylpropanoic acid], the “% @ concentration, uM” value amounted to 9%.

Staying with this experiment, now noted: Table 5; @ 2 uM.
As for `CCOC(=O)c1ccc(-n2nc(C(F)(F)F)cc2NC(=O)Nc2ccc(Cl)cc2)cc1` [Example 338, ethyl 4-{5-[3-(4 chlorophenyl)ureido]-3-(trifluoromethyl)-1H-pyrazol-1-yl}benzoate], the “% @ concentration, uM” value is reported as 7% @ 2.

In the case of `O=C(Nc1ccc(Cl)cc1)Nc1cc(C(F)(F)F)nn1-c1ccc(CO)cc1` [Example 339, 1-(4-chlorophenyl)-3-{3-(trifluoromethyl)-1-[4-(hydroxyl-methyl)phenyl]-1H-pyrazol-5-yl}urea], the “% @ concentration, uM” value is 9% @ 2.

Staying with this experiment, now noted: Table 5; @ 10 uM.
In the case of `CC(C)(C)c1cc(NC(=O)Nc2cccc(F)c2F)n(-c2ccc(CO)cc2)n1` [Example 315, 1-{3-t-butyl-1-[4-(hydroxymethyl)phenyl]-1H-pyrazol-5-yl}-3-(2,3-difluoro-phenyl)urea], the “% @ concentration, uM” value was 54% @ 10.

Regarding `CC(Cc1cccc(-n2nc(C(C)(C)C)cc2NC(=O)Nc2cccc(Cl)c2Cl)c1)C(=O)O` (centres unmarked) [Example 323, 3-(3-{3-t-butyl-5-[3-(2,3-dichlorophenyl)ureido]-1H-pyrazol-1-yl}-1-phenyl)-2-methylpropanoic acid], the “% @ concentration, uM” value stood at 51%.

For `CCOC(=O)C(C)Cc1ccc(-n2nc(C(C)(C)C)cc2NC(=O)Nc2cccc3ccccc23)cc1` (centres unmarked) [Example 324, ethyl 3-(4-{3-t-butyl-5-[3-(naphthalen-1-yl)ureido]-1H-pyrazol-1-yl}phenyl)-2-methylpropanoate], the “% @ concentration, uM” value was found to be 40% @ 10.

Turning to `CC(Cc1ccc(-n2nc(C(C)(C)C)cc2NC(=O)Nc2cccc3ccccc23)cc1)C(=O)O` (centres unmarked) [Example 325, 3-(4-{3-t-butyl-5-[3-(naphthalen-1-yl)ureido]-1H-pyrazol-1-yl}phenyl)-2-methylpropanoic acid], the “% @ concentration, uM” value turned out to be 54% @ 10.

As to `CCOC(=O)C(C)Cc1ccc(-n2nc(C(C)(C)C)cc2NC(=O)Nc2ccc(Cl)cc2)cc1` (centres unmarked) [Example 326, ethyl 3-(4-{3-t-butyl-5-[3-(4-chlorophenyl)ureido]-1H-pyrazol-1-yl}phenyl)-2-methylpropanoate], the “% @ concentration, uM” value is given as 41% @ 10.

As to `CCOC(=O)c1cccc(-n2nc(-c3ccccc3)cc2NC(=O)Nc2cccc3ccccc23)c1` [Example 328, ethyl 3-[5-(3-naphthalen-1-yl-ureido)-3-phenyl-pyrazol-1-yl]benzoate], the “% @ concentration, uM” value was determined as 68% @ 10.

For the compound `O=C(Nc1ccc(Cl)cc1)Nc1cc(-c2ccccc2)nn1-c1ccc(CO)cc1` [Example 331, 1-(4-chlorophenyl)-3-{1-[4-(hydroxymethyl)phenyl]-3-phenyl-1H-pyrazol-5-yl}-urea], the “% @ concentration, uM” value turned out to be 71% @ 10.

As for `CCOC(=O)c1cccc(-n2nc(C(F)(F)F)cc2NC(=O)Nc2cccc3ccccc23)c1` [Example 336], the “% @ concentration, uM” value is 27% @ 10.

`CC(C)(O)c1cccc(-n2nc(C(F)(F)F)cc2NC(=O)Nc2cccc3ccccc23)c1` [Example 337]: the “% @ concentration, uM” value came out at 8% @ 10.

With `CCOC(=O)c1cccc(-n2nc(C)cc2NC(=O)Nc2cccc3ccccc23)c1` [Example 340, ethyl 3-{3-methyl-5-[3-(naphthalen-1-yl)ureido]-1H-pyrazol-1-yl}benzoate], the “% @ concentration, uM” value is recorded as 31% @ 10.

The experiment is the same for the next values; noted with them: Table 5; assay not named; read-out: uM.
With `CC(C)(C)c1cc(NC(=O)Nc2cccc(Cl)c2)n(-c2cccc(CO)c2)n1` [Example 303], the IC50 amounted to 0.089 µM.

As for `COc1cccc(NC(=O)Nc2cc(C(C)(C)C)nn2-c2cccc(CO)c2)c1` [Example 306, 1-{3-t-butyl-1-[3-(hydroxymethyl)phenyl]-1H-pyrazol-5-yl}-3-(3-methoxyphenyl)urea], the IC50 stood at 0.058 µM.

For the compound `CC(C)(C)c1cc(NC(=O)Nc2cccc3ccccc23)n(-c2cccc(CN)c2)n1` [Example 307, 1-(3-t-butyl-1-(3-(aminomethyl)phenyl)-1H-pyrazol-5-yl)-3-(naphthalen-1-yl)urea], the IC50 stood at 0.049 µM.

As for `CNC(=O)Cc1cccc(-n2nc(C(C)(C)C)cc2NC(=O)Nc2cccc(Cl)c2Cl)c1` [Example 310], the IC50 came to 0.13 µM.

Regarding `CCOC(=O)CCc1cccc(-n2nc(-c3ccccc3)cc2NC(=O)Nc2ccc(Cl)cc2)c1` [Example 311, 3-(3-{5-[3-(4-chlorophenyl)-ureido]-3-phenyl-pyrazol-1-yl}-phenyl)-propionic acid ethyl ester], the IC50 was determined as 0.182 µM.

In the case of `COc1ccc(-n2nc(C(C)(C)C)cc2NC(=O)Nc2cccc(F)c2F)cc1` [Example 312, 1-[3-t-butyl-1-(4-methoxyphenyl)-1H-pyrazol-5-yl]-3-(2,3-difluorophenyl)urea], the IC50 worked out at 0.349 µM.

As to `CCOC(=O)CCc1cccc(-n2nc(C(C)C)cc2NC(=O)Nc2ccc(Cl)cc2)c1` [Example 313, ethyl 3-(3-(5-(3-(4-chlorophenyl)ureido)-3-isopropyl-1H-pyrazol-1-yl)phenyl)propanoate], the IC50 is 0.25 µM.

Consider `CCOC(=O)c1ccc(-n2nc(C(C)(C)C)cc2NC(=O)Nc2cccc(F)c2F)cc1` [Example 314, ethyl 4-{3-t-butyl-5-[3-(2,3-difluorophenyl)ureido]-1H-pyrazol-1-yl}benzoate], for which the IC50 came out at 0.25 µM.

Take `CCOC(=O)Cc1ccc(-n2nc(C(C)(C)C)cc2NC(=O)Nc2cccc3ccccc23)cc1` [Example 316, ethyl 2-(4-{3-t-butyl-5-[3-(naphthalen-1-yl)ureido]-1H-pyrazol-1-yl}phenyl)acetate]: the IC50 came to 0.42 µM.

`CCOC(=O)Cc1ccc(-n2nc(C(C)(C)C)cc2NC(=O)Nc2ccc(Cl)cc2)cc1` [Example 317, ethyl 2-(4-{3-t-butyl-5-[3-(4-chlorophenyl)ureido]-1H-pyrazol-1-yl}phenyl)acetate]: the IC50 was found to be 0.068 µM.

In the case of `CCOC(=O)Cc1ccc(-n2nc(C(C)(C)C)cc2NC(=O)Nc2cccc(Cl)c2Cl)cc1` [Example 318], the IC50 came to 0.67 µM.

Regarding `CCOC(=O)Cc1cccc(-n2nc(C(C)(C)C)cc2NC(=O)Nc2cccc3ccccc23)c1` [Example 319, ethyl 2-(3-{3-t-butyl-5-[3-(naphthalen-1-yl)ureido]-1H-pyrazol-1-yl}phenyl)acetate], the IC50 came to 0.32 µM.

Consider `CCOC(=O)Cc1cccc(-n2nc(C(C)(C)C)cc2NC(=O)Nc2ccc(Cl)cc2)c1` [Example 320, ethyl 2-(3-{3-t-butyl-5-[3-(4-chlorophenyl)ureido]-1H-pyrazol-1-yl}phenyl)acetate], for which the IC50 amounted to 0.79 µM.

In the case of `CCOC(=O)Cc1cccc(-n2nc(C(C)(C)C)cc2NC(=O)Nc2cccc(Cl)c2Cl)c1` [Example 321, ethyl 2-(3-{3-t-butyl-5-[3-(2,3-dichlorophenyl)ureido]-1H-pyrazol-1-yl}phenyl)acetate], the IC50 was 0.52 µM.

Take `CCOC(=O)C(C)Cc1cccc(-n2nc(C(C)(C)C)cc2NC(=O)Nc2cccc(Cl)c2Cl)c1` (centres unmarked) [Example 322, ethyl 3-(3-{3-t-butyl-5-[3-(2,3-dichlorophenyl)ureido]-1H-pyrazol-1-yl}phenyl)-2-methylpropanoate]: the IC50 amounted to 2.02 µM.

Turning to `CC(Cc1ccc(-n2nc(C(C)(C)C)cc2NC(=O)Nc2ccc(Cl)cc2)cc1)C(=O)O` (centres unmarked) [Example 327, 3-(4-{3-t-butyl-5-[3-(4-chlorophenyl)ureido]-1H-pyrazol-1-yl}phenyl)-2-methylpropanoic acid], the IC50 is 0.81 µM.

Consider `CC(C)(O)c1cccc(-n2nc(-c3ccccc3)cc2NC(=O)Nc2cccc3ccccc23)c1` [Example 329, 1-{1-[3-(2-hydroxypropan-2-yl)phenyl]-3-phenyl-1H-pyrazol-5-yl}-3-(naphthalen-1-yl)urea], for which the IC50 is 0.25 µM.

As to `CCOC(=O)c1cccc(-n2nc(C(C)C)cc2NC(=O)Nc2cccc3ccccc23)c1` [Example 332, ethyl 3-(3-isopropyl-5-[3-(naphthalen-1-yl)ureido]-1H-pyrazol-1-yl)benzoate], the IC50 was 0.05 µM.

Turning to `CC(C)c1cc(NC(=O)Nc2cccc3ccccc23)n(-c2cccc(C(C)(C)O)c2)n1` [Example 333, 1-{1-[3-(2-hydroxypropan-2-yl)phenyl]-3-isopropyl-1H-pyrazol-5-yl}-3-(naphthalen-1-yl)urea], the IC50 stood at 2.44 µM.

For the compound `CCOC(=O)c1ccc(-n2nc(C(C)C)cc2NC(=O)Nc2ccc(Cl)cc2)cc1` [Example 334, ethyl 4-{5-[3-(4-chlorophenyl)ureido]-3-isopropyl-1H-pyrazol-1-yl}benzoate], the IC50 was determined as 2.2 µM.

Regarding `CC(C)c1cc(NC(=O)Nc2ccc(Cl)cc2)n(-c2ccc(CO)cc2)n1` [Example 335, 1-(4-chlorophenyl)-3-{1-[4-(hydroxymethyl)phenyl]-3-isopropyl-1H-pyrazol-5-yl}-urea], the IC50 came to 0.014 µM.

With `CCOC(=O)c1cccc(-n2nc(C)cc2NC(=O)Nc2cccc(Cl)c2Cl)c1` [Example 342, ethyl 3-{5-[3-(2,3-dichlorophenyl)ureido]-3-methyl-1H-pyrazol-1-yl}benzoate], the IC50 came out at 1 µM.

The values are drawn from patent US20090312349A1, “ANTI-INFLAMMATORY MEDICAMENTS” (priority 2004, published 2009).
